Results from US20240400586A1, “HETEROARYL DERIVATIVE PARP INHIBITOR AND USE THEREOF” (HAISCO PHARMACEUTICAL GROUP CO., LTD., priority 2021, published 2024).

Key:
[1] = Pharmacokinetic test in rats; type: in vivo, rat; conditions: male SD rats
Experimental: • 1.1 Experimental animals: male SD rats, about 220 g, 6-8 weeks old, 6 rats/compound, purchased from Chengdu Ddossy Experimental Animals Co., Ltd. • 1.2 Experimental design: on the day of the test, 6 SD rats were randomly grouped according to their body weight; the animals were fasted with water available for 12 to 14 h one day before the administration, and were fed 4 h after the administration.
Before and after the administration, 0.15 mL of blood was taken from the orbit of the animals under isoflurane anesthesia and placed in an EDTAK2 centrifuge tube. The blood was centrifuged at 5000 rpm and 4° C. for 10 min to collect plasma. The blood collection time points for the intravenous administration group and intragastric administration group were: 0, 5 min, 15 min, 30 min, 1 h, 2 h, 4 h, 6 h, 8 h, and 24 h. Before analysis and detection, all samples were stored at −80° C. The samples were analyzed quantitatively by LC-MS/MS.

[2] = tested on: MDA-MB-436 subcutaneous transplanted tumor; test: Mouse MDA-MB-436 subcutaneous in vivo transplanted tumor model
Experimental: Human breast cancer MDA-MB-436 cells were placed in Leibovitz's L-15 medium (supplemented with 10 μg/mL insulin, 16 μg/mL glutathione, 10% fetal bovine serum and 1% double antibody) and cultured at 37° C. Conventional digestion treatment with trypsin was carried out twice a week for passage. When the cell saturation was 80%-90%, and the number reached the requirement, the cells were collected, counted, and inoculated. BALB/c nude mice (from Beijing Vital River Laboratory Animal Technology Co., Ltd.) were subcutaneously inoculated with 0.2 mL (10×10^6) of MDA-MB-436 cells (plus matrigel, with the volume ratio of 1:1) on the right back. When the average tumor volume reached about 180 mm^3, grouping and administration were performed (marked as Day 0). […] The administration frequency was once a day, the administration cycle was 29 days, and the drug withdrawal observation period was set to 14 days. After grouping, the tumor diameter was measured twice a week with a vernier caliper. The formula for calculating the tumor volume was: V=0.5×a×b^2, where a and b represented the long and short diameters of the tumor, respectively.

[3] = molecular target: PARP7 (Homo sapiens (Human), UniProt Q7Z3E1); test: PARP7 enzyme activity test; type: biochemical
Experimental: (§1) PARP2, PARP5A, PARP5B, PARP6, PARP7, PARP14 and PARP15 chemical fluorescence detection kits were purchased from BPS Bioscience. The histone solution in the kit was diluted 5× with 1×PBS, and 25 μL of the diluted histone solution was added to a microwell plate and incubated overnight at 4° C. After the incubation, the plate was washed three times with PBST (0.05% Tween-20). 100 μL of the blocking solution was added to the microwell plate and incubated at 25° C. for 90 minutes. After the incubation, the plate was washed three times with PBST. […] 5 μL of the diluted PARP enzyme was added to the microwell plate, and the reaction system was incubated at 25° C. for 60 minutes.
(§2) After the incubation, the plate was washed three times with PBST. Streptavidin-HRP was diluted 50× with a blocking solution, and 25 μL of the diluent was added to the microwell plate and incubated at 25° C. for 30 minutes. After the incubation, the plate was washed three times with PBST. ELISA ECL substrate A and substrate B were mixed at a ratio of 1:1 (v/v), 25 μL of the mixture was added to the microwell plate, and the chemiluminescence value was read.
(§3) Curve fitting was performed by four parameters (log(inhibitor) vs. response—Variable slope) using GraphPad Prism software, and the IC50 value was calculated.

[4] = molecular target: PARP5B (Homo sapiens (Human), UniProt Q9H2K2); test: PARP5B enzyme activity test; type: biochemical
Experimental: as §1, §2, §3

[5] = molecular target: PARP15 (Homo sapiens (Human), UniProt Q460N3); test: PARP15 enzyme activity test; type: biochemical
Experimental: as §1, §2, §3

[6] = tested on: breast tumor cells MDA-MB-436; test: MDA-MB-436 cell activity test (CellTiter-Glo, 7 days); type: cell-based; conditions: Homo sapiens, MDA-MB-436, 168 h, 7 days incubation
Experimental: Breast tumor cells MDA-MB-436 were purchased from ATCC, the culture medium was Leibovitz's L-15+10% FBS, and the cells were cultured in a CO2-free incubator at 37° C. On day 1, the cells in the exponential growth phase were collected, and the cell suspension was adjusted to 4000 cells/135 μL with the culture medium. 135 μL of the cell suspension was added to each well of a 96-well cell culture plate and incubated overnight. On day 2, compounds at different concentrations were added, and the plate was placed in the incubator and incubated for 7 days. After the incubation was completed, according to operation instructions for a CellTiter-Glo kit (Promega, G7573), 75 μL of CTG solution, which was already pre-melted and equilibrated to room temperature, was added to each well, and the mixture was uniformly mixed for 2 min using a microplate shaker. The plate was placed at room temperature for 10 min, and then […] were measured using an Envision2104 plate reader (PerkinElmer). The inhibition rate was calculated using formula (1), where RLUcompound was the readout of the drug treated group, RLUcontrol was the average value of the vehicle control group, and RLUblank was the average value of the cell-free well. The IC50 value was calculated using GraphPad Prism software.

[7] = molecular target: PARP5A (Homo sapiens (Human), UniProt O95271); test: PARP5A enzyme activity test; type: biochemical
Experimental: as §1, §2, §3

[8] = tested on: Human breast cancer MDA-MB-231 cells; test: MDA-MB-231 cell proliferation inhibition test (CellTiter-Glo, 7 days); type: cell-based; conditions: MDA-MB-231, 168 h, 7 days incubation
Experimental: The cells in the exponential growth phase were collected, and the cell suspension was adjusted to 1500 cells/135 μL with the culture medium. 135 μL of the cell suspension was added to each well of a 96-well cell culture plate and incubated overnight. On day 2, compounds at different concentrations were added, and the plate was placed in the incubator and incubated for 7 days. After the incubation was completed, according to operation instructions for a CellTiter-Glo kit (Promega, Cat #G7573), 75 μL of CTG solution, which was already pre-melted and equilibrated to room temperature, was added to each well, and the mixture was uniformly mixed for 2 min using a microplate shaker. The plate was placed at room temperature for 10 min, and then […] signal values were measured using an Envision 2104 plate reader (PerkinElmer).

[9] = Sprague-Dawley (SD), rat, iv, i.v. 2.5 mg/kg, plasma

PARP15, sequence (Q460N3 whole entry): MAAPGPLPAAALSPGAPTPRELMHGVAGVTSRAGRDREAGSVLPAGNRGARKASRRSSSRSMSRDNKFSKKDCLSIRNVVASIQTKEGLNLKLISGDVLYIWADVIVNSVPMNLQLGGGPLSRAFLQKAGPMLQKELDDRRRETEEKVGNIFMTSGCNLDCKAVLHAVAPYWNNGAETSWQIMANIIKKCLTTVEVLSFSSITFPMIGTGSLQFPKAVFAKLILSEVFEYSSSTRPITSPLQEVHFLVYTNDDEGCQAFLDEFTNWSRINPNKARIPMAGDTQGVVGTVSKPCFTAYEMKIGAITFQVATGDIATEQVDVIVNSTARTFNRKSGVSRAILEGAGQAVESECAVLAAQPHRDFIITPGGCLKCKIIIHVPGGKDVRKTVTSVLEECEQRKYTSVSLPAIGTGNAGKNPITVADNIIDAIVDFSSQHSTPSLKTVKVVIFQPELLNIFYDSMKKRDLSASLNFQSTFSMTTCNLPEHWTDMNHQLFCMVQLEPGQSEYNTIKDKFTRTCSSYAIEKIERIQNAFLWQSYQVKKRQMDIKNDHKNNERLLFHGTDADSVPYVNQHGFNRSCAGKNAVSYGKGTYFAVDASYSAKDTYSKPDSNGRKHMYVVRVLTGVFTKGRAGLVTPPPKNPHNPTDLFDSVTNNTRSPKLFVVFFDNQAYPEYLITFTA
PARP5A, sequence (O95271 1001-1327 limits assumed): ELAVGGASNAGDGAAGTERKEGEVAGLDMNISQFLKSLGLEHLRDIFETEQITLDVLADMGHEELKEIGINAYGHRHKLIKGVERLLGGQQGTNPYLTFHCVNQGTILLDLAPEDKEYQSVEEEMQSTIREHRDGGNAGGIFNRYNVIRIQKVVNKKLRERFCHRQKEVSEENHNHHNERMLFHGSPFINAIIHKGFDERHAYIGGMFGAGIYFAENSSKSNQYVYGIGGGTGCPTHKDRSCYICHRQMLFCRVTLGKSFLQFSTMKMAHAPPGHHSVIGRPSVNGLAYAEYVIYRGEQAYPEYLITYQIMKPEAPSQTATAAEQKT
PARP5B, sequence (Q9H2K2 667-1166 limits assumed): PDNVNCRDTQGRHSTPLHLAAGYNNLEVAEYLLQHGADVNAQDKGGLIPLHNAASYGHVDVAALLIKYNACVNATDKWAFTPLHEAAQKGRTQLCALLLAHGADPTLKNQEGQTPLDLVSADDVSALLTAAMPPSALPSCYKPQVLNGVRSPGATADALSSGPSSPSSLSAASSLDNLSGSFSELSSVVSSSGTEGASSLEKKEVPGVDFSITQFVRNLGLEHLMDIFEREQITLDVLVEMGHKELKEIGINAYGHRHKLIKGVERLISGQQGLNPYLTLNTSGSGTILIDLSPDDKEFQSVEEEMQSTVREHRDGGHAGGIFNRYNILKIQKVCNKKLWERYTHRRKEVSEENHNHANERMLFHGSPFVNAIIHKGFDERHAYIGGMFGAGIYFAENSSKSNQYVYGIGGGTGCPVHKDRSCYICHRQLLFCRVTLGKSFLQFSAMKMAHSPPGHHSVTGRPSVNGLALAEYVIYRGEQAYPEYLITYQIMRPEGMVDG
PARP7, sequence (Q7Z3E1 whole entry): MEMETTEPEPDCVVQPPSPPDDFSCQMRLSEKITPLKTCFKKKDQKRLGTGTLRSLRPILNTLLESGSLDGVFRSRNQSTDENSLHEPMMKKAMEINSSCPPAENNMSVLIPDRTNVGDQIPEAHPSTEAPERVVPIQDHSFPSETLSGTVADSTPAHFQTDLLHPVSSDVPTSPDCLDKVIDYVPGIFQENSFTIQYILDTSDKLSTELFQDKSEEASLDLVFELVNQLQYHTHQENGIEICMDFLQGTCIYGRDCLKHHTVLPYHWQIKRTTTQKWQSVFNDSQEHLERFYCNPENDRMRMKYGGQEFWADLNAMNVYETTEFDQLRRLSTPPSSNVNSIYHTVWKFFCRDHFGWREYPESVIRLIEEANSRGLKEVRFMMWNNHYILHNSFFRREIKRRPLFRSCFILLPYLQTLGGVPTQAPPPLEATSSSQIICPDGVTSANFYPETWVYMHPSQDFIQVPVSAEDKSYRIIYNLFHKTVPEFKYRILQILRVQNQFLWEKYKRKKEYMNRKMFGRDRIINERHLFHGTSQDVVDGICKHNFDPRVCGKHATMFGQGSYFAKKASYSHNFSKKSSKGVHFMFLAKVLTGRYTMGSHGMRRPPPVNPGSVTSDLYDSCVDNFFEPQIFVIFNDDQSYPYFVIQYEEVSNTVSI

CCc1cc2ncc(CN3CCN(c4ccc(C(=O)NC5CC5)nc4)CC3)cc2[nH]c1=O [Compound 4, N-cyclopropyl-5-(4-((7-ethyl-6-oxo-5,6-dihydro-1,5-naphthyridin-3-yl)methyl)piperazin-1-yl)picolinamide]
AUC(0-t) [1, 9]: 46.6 ± 4.75 µg·h/mL
clearance [1, 9]: 0.896 ± 0.097 mL/min/kg
Vd ([1]; Sprague-Dawley (SD), rat, iv, i.v. 2.5 mg/kg, plasma, read-out: Vdss): 0.236 ± 0.022 L/kg
AUC(0-t) ([1]; Sprague-Dawley (SD), rat, po, i.g. 10 mg/kg, plasma): 184 ± 72.3 µg·h/mL
F ([1]; i.g. 10 mg/kg): 98.8 ± 39%
tumor growth after the drug withdrawal ([2]; 14 days drug withdrawal observation period): did not grow again
body weight of the animals ([2]; BALB/c nude mice, once a day, Day 0-10: 1 mg/kg, Day 11-28: 0.1 mg/kg): no significant decrease in the body weight
TGI ([2]; BALB/c nude mice, once a day, Day 0-10: 1 mg/kg, Day 11-28: 0.1 mg/kg, after 28 days of administration): 119%
IC50 [3]: 5.36 µM
IC50 [4]: 0.576 µM
IC50 [5]: 4.3 µM
inhibition at 10 µM ([6]; 10 μM, read-out: MDA-MB-436 Max inh. % 10 μM): 89.4%
IC50 ([6]; read-out: MDA-MB-436 cell inhibitory activity IC50): 0.002 µM
IC50 [7]: 6.08 µM
inhibition at 10 µM ([8]; 10 μM, read-out: MDA-MB-231 Max inh. % 10 μM): 66.8%
IC50 ([8]; BRCA WT cells, read-out: MDA-MB-231 cell inhibitory activity IC50): 15.9 µM
